This note sets out measurements from ChEMBL document CHEMBL1151504, “Structure-activity relationships of double-strand RGD peptides as GPIIb/IIIa receptor antogonists” (Bioorg Med Chem Lett, 1994).

The experiment is filed under the species Homo sapiens. Put plainly: In vitro inhibition of ADP induced human platelet aggregation in platelet rich plasma(PRP) and presence of Tris buffer. The format is functional.

Numbered stars: 1 amine (or outer) side, 2 acyl side, 3 side chain; on linkers, the order of the positions; unused ones are H or OH. Bridge positions count the residues as written; N and C are the ends. Square brackets hold non-standard residues; d marks the D form. Peptide text beside a SMILES is read from it. I, II: the chains in the order shown. * marks the point of attachment. Benzoyl(4-guanidino) = N=C(N)Nc1ccc(C(=O)*)cc1; X1 = NC(=O)c1cc(N[*:1])cc(N[*:2])c1; Adipoyl = O=C(CCCCC(=O)[*:2])[*:1]; Glutaryl = O=C(CCCC(=O)[*:2])[*:1]; Suc = O=C(CCC(=O)[*:2])[*:1]; X2 = O=C1Oc2ccccc2CC1C(=O)*; 3Abz = Nc1cccc(C(=O)O)c1; 4Abz = Nc1ccc(C(=O)O)cc1; 2Abz = Nc1ccccc1C(=O)O; Hexanoyl = CCCCCC(=O)*; Bz = O=C(c1ccccc1)*

In the case of `NC(=O)c1cc(NC(=O)CNC(=O)[C@@H]2CCCN2C(=O)[C@H](Cc2ccccc2)NC(=O)[C@H](CC(=O)O)NC(=O)CNC(=O)[C@@H](N)CCCN=C(N)N)cc(NC(=O)CNC(=O)[C@@H]2CCCN2C(=O)[C@H](Cc2ccccc2)NC(=O)[C@H](CC(=O)O)NC(=O)CNC(=O)[C@@H](N)CCCN=C(N)N)c1` (I: H-RGDFPG / II: H-RGDFPG; linker I:C-II:C via X1), the IC50 is 13 µM.

For `NC(=O)C1CC(NC(=O)[C@H](Cc2ccccc2)NC(=O)[C@H](CC(=O)O)NC(=O)CNC(=O)[C@@H](N)CCCN=C(N)N)CC(NC(=O)[C@H](Cc2ccccc2)NC(=O)[C@H](CC(=O)O)NC(=O)CNC(=O)[C@@H](N)CCCN=C(N)N)C1` (stereo partly specified), the IC50 was found to be 50 µM.

For the compound `CC(=O)N[C@@H](CCCN=C(N)N)C(=O)NCC(=O)N[C@@H](CC(=O)O)C(=O)N[C@@H](Cc1ccccc1)C(=O)N1CCC[C@H]1C(=O)NCCCC[C@H](NC(=O)[C@@H]1CCCN1C(=O)[C@H](Cc1ccccc1)NC(=O)[C@H](CC(=O)O)NC(=O)CNC(=O)[C@H](CCCN=C(N)N)NC(C)=O)C(N)=O` (I: Ac-RGDFPK-NH2 / II: Ac-RGDFP; amide I:6-II:C), the IC50 was found to be 4.1 µM.

In the case of `CCCCCC(=O)N[C@@H](CCCN=C(N)N)C(=O)NCC(=O)N[C@@H](CC(=O)O)C(=O)N[C@@H](Cc1ccccc1)C(=O)N1CCC[C@H]1C(=O)NCCCC[C@H](NC(=O)[C@@H]1CCCN1C(=O)[C@H](Cc1ccccc1)NC(=O)[C@H](CC(=O)O)NC(=O)CNC(=O)[C@H](CCCN=C(N)N)NC(=O)CCCCC)C(N)=O` (I: Hexanoyl-RGDFPK-NH2 / II: Hexanoyl-RGDFP; amide I:6-II:C), the IC50 stood at 1.2 µM.

Turning to `N=C(N)NCCC[C@H](NC(=O)c1ccccc1)C(=O)NCC(=O)N[C@@H](CC(=O)O)C(=O)N[C@@H](Cc1ccccc1)C(=O)N1CCC[C@H]1C(=O)NCCCC[C@H](NC(=O)[C@@H]1CCCN1C(=O)[C@H](Cc1ccccc1)NC(=O)[C@H](CC(=O)O)NC(=O)CNC(=O)[C@H](CCCN=C(N)N)NC(=O)c1ccccc1)C(N)=O` (I: Bz-RGDFPK-NH2 / II: Bz-RGDFP; amide I:6-II:C), the IC50 was 2.2 µM.

Turning to `NCC(=O)N[C@@H](CCCN=C(N)N)C(=O)NCC(=O)N[C@@H](CC(=O)O)C(=O)N[C@@H](Cc1ccccc1)C(=O)NCC(=O)Nc1cc(NC(=O)CNC(=O)[C@H](Cc2ccccc2)NC(=O)[C@H](CC(=O)O)NC(=O)CNC(=O)[C@H](CCCN=C(N)N)NC(=O)CN)cc(C(=O)NCC(=O)N[C@@H](CCCN=C(N)N)C(=O)NCC(=O)N[C@@H](CC(=O)O)C(=O)N[C@@H](Cc2ccccc2)C(N)=O)c1`, the IC50 came out at 33 µM.

Take `N=C(N)NCCC[C@@H](NC(=O)c1ccccc1C(=O)N[C@@H](CCCN=C(N)N)C(=O)NCC(=O)N[C@@H](CC(=O)O)C(=O)N[C@@H](Cc1ccccc1)C(=O)O)C(=O)NCC(=O)N[C@H](CC(=O)O)C(=O)N[C@H](Cc1ccccc1)C(=O)O`: the IC50 was determined as 13 µM.

As to `N=C(N)NCCC[C@H](NC(=O)CCCC(=O)N[C@@H](CCCNC(=N)N)C(=O)NCC(=O)N[C@@H](CC(=O)O)C(=O)N[C@@H](Cc1ccccc1)C(=O)O)C(=O)NCC(=O)N[C@@H](CC(=O)O)C(=O)N[C@@H](Cc1ccccc1)C(=O)O` (I: RGDF-OH / II: RGDF-OH; linker I:N-II:N via Glutaryl), the IC50 came out at 15 µM.

Regarding `N=C(N)NCCC[C@H](NC(=O)CCCCC(=O)N[C@@H](CCCNC(=N)N)C(=O)NCC(=O)N[C@@H](CC(=O)O)C(=O)N[C@@H](Cc1ccccc1)C(=O)O)C(=O)NCC(=O)N[C@@H](CC(=O)O)C(=O)N[C@@H](Cc1ccccc1)C(=O)O` (I: RGDF-OH / II: RGDF-OH; linker I:N-II:N via Adipoyl), the IC50 stood at 14 µM.

Consider `NCC(=O)N[C@@H](CCCN=C(N)N)C(=O)NCC(=O)N[C@@H](CC(=O)O)C(=O)N[C@@H](Cc1ccccc1)C(=O)NCC(=O)Nc1cccc(C(=O)NCC(=O)N[C@@H](CCCN=C(N)N)C(=O)NCC(=O)N[C@@H](CC(=O)O)C(=O)N[C@@H](Cc2ccccc2)C(=O)O)c1` (H-GRGDFG[3Abz]GRGDF-OH), for which the IC50 worked out at 19 µM.

On to `CCCCCC(=O)N[C@@H](CCCN=C(N)N)C(=O)NCC(=O)N[C@@H](CC(=O)O)C(=O)N[C@@H](Cc1ccccc1)C(=O)N1CCC[C@H]1C(=O)NCC(=O)Nc1cc(NC(=O)CNC(=O)[C@H]2CCCN2C(=O)[C@@H](Cc2ccccc2)NC(=O)[C@@H](CC(=O)O)NC(=O)CNC(=O)[C@@H](CCCN=C(N)N)NC(=O)CCCCC)cc(C(N)=O)c1`, for which the IC50 is 0.35 µM.

Regarding `N=C(N)NCCC[C@H](NC(=O)c1ccccc1)C(=O)NCC(=O)N[C@@H](CC(=O)O)C(=O)N[C@@H](Cc1ccccc1)C(=O)NC1CC(NC(=O)[C@H](Cc2ccccc2)NC(=O)[C@H](CC(=O)O)NC(=O)CNC(=O)[C@H](CCCN=C(N)N)NC(=O)c2ccccc2)CC(C(=O)N[C@@H](CCCN=C(N)N)C(=O)NCC(=O)N[C@@H](CC(=O)O)C(=O)N[C@@H](Cc2ccccc2)C(=O)O)C1` (stereo partly specified), the IC50 was 7.4 µM.

On to `N=C(N)NCCC[C@H](NC(=O)c1ccccc1)C(=O)NCC(=O)N[C@@H](CC(=O)O)C(=O)N[C@@H](Cc1ccccc1)C(=O)NCCCC[C@H](NC(=O)[C@H](Cc1ccccc1)NC(=O)[C@H](CC(=O)O)NC(=O)CNC(=O)[C@H](CCCN=C(N)N)NC(=O)c1ccccc1)C(N)=O`, for which the IC50 was determined as 2.6 µM.

Turning to `CCCCCC(=O)N[C@@H](CCCN=C(N)N)C(=O)NCC(=O)N[C@@H](CC(=O)O)C(=O)N[C@@H](Cc1ccccc1)C(=O)NCCCC[C@H](NC(=O)[C@H](Cc1ccccc1)NC(=O)[C@H](CC(=O)O)NC(=O)CNC(=O)[C@H](CCCN=C(N)N)NC(=O)CCCCC)C(N)=O`, the IC50 came out at 2.3 µM.

For the compound `NCC(=O)N[C@@H](CCCN=C(N)N)C(=O)NCC(=O)N[C@@H](CC(=O)O)C(=O)N[C@@H](Cc1ccccc1)C(=O)NCC(=O)Nc1ccc(C(=O)NCC(=O)N[C@@H](CCCN=C(N)N)C(=O)NCC(=O)N[C@@H](CC(=O)O)C(=O)N[C@@H](Cc2ccccc2)C(=O)O)cc1` (H-GRGDFG[4Abz]GRGDF-OH), the half-inhibitory concentration (IC50) worked out at 35 µM.

Consider `N=C(N)NCCC[C@H](NC(=O)[C@H](CO)NC(=O)c1ccc(NC(=N)N)cc1)C(=O)NCC(=O)N[C@@H](CC(=O)O)C(=O)N[C@@H](Cc1ccccc1)C(=O)N1CCC[C@H]1C(=O)NCCCC[C@H](NC(=O)[C@@H]1CCCN1C(=O)[C@H](Cc1ccccc1)NC(=O)[C@H](CC(=O)O)NC(=O)CNC(=O)[C@H](CCCNC(=N)N)NC(=O)[C@H](CO)NC(=O)c1ccc(NC(=N)N)cc1)C(N)=O` (I: {Benzoyl(4-guanidino)}-SRGDFPK-NH2 / II: {Benzoyl(4-guanidino)}-SRGDFP; amide I:7-II:C), for which the IC50 amounted to 0.087 µM.

For `N=C(N)NCCC[C@H](NC(=O)CCC(=O)N[C@@H](CCCNC(=N)N)C(=O)NCC(=O)N[C@@H](CC(=O)O)C(=O)N[C@@H](Cc1ccccc1)C(=O)O)C(=O)NCC(=O)N[C@@H](CC(=O)O)C(=O)N[C@@H](Cc1ccccc1)C(=O)O` (I: RGDF-OH / II: RGDF-OH; linker I:N-II:N via Suc), the IC50 was 15 µM.

As for `NCC(=O)N[C@@H](CCCN=C(N)N)C(=O)NCC(=O)N[C@@H](CC(=O)O)C(=O)N[C@@H](Cc1ccccc1)C(=O)NCC(=O)Nc1ccccc1C(=O)NCC(=O)N[C@@H](CCCN=C(N)N)C(=O)NCC(=O)N[C@@H](CC(=O)O)C(=O)N[C@@H](Cc1ccccc1)C(=O)O` (H-GRGDFG[2Abz]GRGDF-OH), the IC50 amounted to 63 µM.

As for `NC(=O)[C@H](CCCCNC(=O)[C@H](Cc1ccccc1)NC(=O)[C@H](CC(=O)O)NC(=O)CNC(=O)[C@@H](N)CCCN=C(N)N)NC(=O)[C@H](Cc1ccccc1)NC(=O)[C@H](CC(=O)O)NC(=O)CNC(=O)[C@@H](N)CCCN=C(N)N`, the IC50 was found to be 35 µM.

As for `NC(N)=NCCC[C@H](NC(=O)C1CC(NC(=O)[C@H](Cc2ccccc2)NC(=O)[C@H](CC(=O)O)NC(=O)CNC(=O)[C@@H](N)CCCN=C(N)N)CC(NC(=O)[C@H](Cc2ccccc2)NC(=O)[C@H](CC(=O)O)NC(=O)CNC(=O)[C@@H](N)CCCN=C(N)N)C1)C(=O)NCC(=O)N[C@@H](CC(=O)O)C(=O)N[C@@H](Cc1ccccc1)C(=O)O` (stereo partly specified), the IC50 was 22 µM.

For `N=C(N)NCCC[C@H](NC(=O)C1Cc2ccccc2OC1=O)C(=O)NCC(=O)N[C@@H](CC(=O)O)C(=O)N[C@@H](Cc1ccccc1)C(=O)N1CCC[C@H]1C(=O)NCCCC[C@H](NC(=O)[C@@H]1CCCN1C(=O)[C@H](Cc1ccccc1)NC(=O)[C@H](CC(=O)O)NC(=O)CNC(=O)[C@H](CCCNC(=N)N)NC(=O)C1Cc2ccccc2OC1=O)C(N)=O` (stereo partly specified) (I: X2-RGDFPK-NH2 / II: X2-RGDFP; amide I:6-II:C), the IC50 stood at 2 µM.

One may read the IC50 as the midpoint of a concentration-inhibition curve.
